We go through 3 molecules from patent US20060159727A1, “Prevention of Systemic Microbial Infection” (priority 2005, published 2006).

One experiment deals with salmonella. The experiment is described as follows: Concentration of salmonella in organs of challenged chicks fed test material. The format is in vivo. The note with it: chicks fed supplemented diet from hatch, sacrificed at 14 days. As to the method: Newly hatched chicks were fed a diet supplemented with the test materials, at 7 days of age, chicks were challenged 0.2 ml of a 2×10^9 salmonella culture. Chicks were sacrificed at 14 days of age (1 week after bacterial challenge), their organs dissected and cultured to determine bacterial counts.

In experiment [1] the test system is Salmonella enteriditis phage type VIII (SePT8). Kind of experiment: Susceptibility test: paper disk zone of inhibition on inoculated agar plate. The conditions noted are these: paper disk impregnated with fixed concentration of test material, 2 days. The format is cell-based. As to the method: An agar plate was uniformly inoculated with salmonella and a paper disk impregnated with a fixed concentration of test material was placed on top of the agar surface. […] The bacteria used was Salmonella enteriditis phage type VIII (SePT8). The study was conducted for 2 days. A disk soaked in sterile water was used as control.

The test system of another experiment is E. coli. The note with it: cited from earlier work.

For the molecule `O=S(=O)([O-])[O-].[Cu+2]` [Copper Sulfate], in the experiment with salmonella (challenged at 7 days with 0.2 ml of 2×10^9 culture, liver), the “concentration of salmonella in Liver” value is listed as 11 cfu. Besides, the “concentration of salmonella in Ceca” value in the experiment on salmonella (challenged at 7 days, ceca) is reported as 54 cfu. Further, the “concentration of salmonella in Colon” value in the experiment with salmonella (challenged at 7 days, colon) is on record as 74 cfu. Moreover, the “concentration of salmonella in Duodenum” value in the experiment with salmonella (challenged at 7 days, duodenum) is 19 cfu. Further, the “concentration of salmonella in Spleen” value in the experiment with salmonella (challenged at 7 days, spleen) is on record as 10 cfu. Further, the “Zone of Inhibition” value in experiment [1] is 1.444 mm.

Consider `CC(C)=CCCC(C)=CC=O` [citral], for which, in the experiment on E. coli, the “citral concentration in growth media that reduced the concentration of E. coli” value is “more than 0.01%”. Further, the “citral concentration with bactericidal effect” value in the experiment on E. coli (growth media, E. coli) is listed as 0.08%.

For Gentamycin, the “Zone of Inhibition” value in experiment [1] was 1.300 mm.
